How the values were obtained:
[1] = biological target: T1, C5a1 (Homo sapiens, UniProt P21730); conditions: up to a concentration of 100 μM, reference 27; cited from earlier work
T1 sequence (P21730 1-350): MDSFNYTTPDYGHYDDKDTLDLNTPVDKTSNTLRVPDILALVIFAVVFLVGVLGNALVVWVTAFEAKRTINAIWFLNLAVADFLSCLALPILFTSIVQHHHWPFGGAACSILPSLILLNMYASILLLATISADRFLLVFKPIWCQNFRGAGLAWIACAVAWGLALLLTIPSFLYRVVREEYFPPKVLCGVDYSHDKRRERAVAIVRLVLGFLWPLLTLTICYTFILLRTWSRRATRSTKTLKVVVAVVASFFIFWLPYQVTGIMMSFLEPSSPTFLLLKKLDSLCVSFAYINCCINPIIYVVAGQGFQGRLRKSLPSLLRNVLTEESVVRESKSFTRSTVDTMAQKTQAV

[2] = biological target: T2, C5aR1 (Homo sapiens, UniProt P21730); experiment: 125I-C5a binding to C5aR1 membranes; conditions: up to a maximum concentration of 500 μM
T2 sequence (P21730 1-350): T1 sequence (P21730 1-350)

[3] = biological target: T3, C3aR (Homo sapiens, UniProt Q16581); conditions: up to a concentration of 100 μM, reference 27; cited from earlier work
T3 sequence (Q16581 1-482): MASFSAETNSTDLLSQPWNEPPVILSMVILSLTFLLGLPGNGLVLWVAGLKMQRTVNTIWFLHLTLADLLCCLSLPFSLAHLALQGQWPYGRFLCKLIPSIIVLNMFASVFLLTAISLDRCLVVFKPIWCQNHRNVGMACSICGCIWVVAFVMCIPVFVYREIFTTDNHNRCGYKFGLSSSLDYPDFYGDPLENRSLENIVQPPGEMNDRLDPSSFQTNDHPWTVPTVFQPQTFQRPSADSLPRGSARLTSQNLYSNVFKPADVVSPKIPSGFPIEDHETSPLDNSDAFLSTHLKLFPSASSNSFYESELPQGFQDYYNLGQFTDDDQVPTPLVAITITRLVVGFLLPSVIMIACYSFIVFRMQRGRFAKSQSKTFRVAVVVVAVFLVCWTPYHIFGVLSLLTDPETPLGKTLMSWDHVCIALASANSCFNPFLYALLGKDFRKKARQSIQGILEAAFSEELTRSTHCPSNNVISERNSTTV

[4] = system: LPS stimulated HMDM; experiment: Cytokine release from LPS stimulated HMDM (ELISA); assay type: cell-based, human; conditions: for IL-6 release from LPS stimulated HMDM / IL-10 release from LPS stimulated HMDM / TNFα release from LPS stimulated HMDM: 24 h after co-stimulation with LPS 10 ng/ml, peptides 0.1-100 μM; for IL-6 release from LPS stimulated HMDM in the presence of PMX53: C5a1 antagonist PMX53 10 μM pre-incubated 30 min
Description: FIG. 4 is a panel of graphs showing the testing P32 and P59 for effects on cytokine release from LPS stimulated HMDM. Measurement of human inflammatory cytokines IL-6 (4A, 4B), TNFα (4C, 4D) and IL-10 (4E, 4F) release from HMDM, 24 h after co-stimulation with LPS (10 ngml^−1) and C5a (0.1-100 nM), P32 or P59 (0.1-100 μM) with or without C5a1 antagonist PMX53 (10 μM) present. Cytokine release was quantified by ELISA. Data is representative of five independent HMDM donors performed in triplicate (n=5). CTRL represents non-stimulated HMDM. Data is normalised to LPS response (100%) for each donor. Error bars represent SEM. *P<0.05, ** P<0.01, *** P<0.001, **** P<0.0001 by one-way ANOVA followed by Dunnett's post hoc test or Sidak's post hoc test for comparisons+/−PMX53.
Briefly, HMDMs were seeded in 96 well tissue culture plates (Nunc) at 100 000 cells/well and allowed to adhere overnight at 37° C. and 5% CO2. The next day HMDMs were stimulated with E. coli derived LPS (10 ng ml^−1) only or LPS (10 ng ml^−1) and either C5a or C5a2 ligands at various concentrations (1-100 nM (C5a) or 0.1-100 μM (C5a2 ligands)). For testing cytokine release in the presence of C5a1 antagonist (PMX53), cells were pre-incubated with PMX53 at 10 μM for 30 min prior to addition of C5a or C5a2 ligands. Following ligand addition HMDMs were returned to 37° C. and 5% CO2 incubator and 24 h after stimulation supernatant was removed from cells and transferred to 96 well polypropylene microplate (Nunc) and stored at −20° C. till needed for assay. Quantification of cytokine release was performed using ELISA kits (BD OptEIA™) as per manufacturers' instructions (BD Biosciences, San Jose, Calif., USA).

[5] = biological target: T4, C5a1-C5a2 heteromer (Homo sapiens, UniProt P21730+Q9P296); experiment: BRET ligand-induced heteromer formation between C5a1 and C5a2; assay type: cell-based; conditions: P32 or P59 100 μM
T4 construct: expressed in transfected cells; host or cells: HEK293 (transient)
Description: Assays were performed as a ligand-induced BRET experiment similar to previously described^17, 31, 49. In brief, HEK293 cells were transiently transfected with either C5a1-Rluc8 and β-arrestin 2-Venus or C5a2-Venus and β-arrestin 2-Rluc8 or C5a1-Rluc8 and C5a2-Venus in a 100-mm dish. 24 h after transfection cells were collected and transferred to a 96-well white microplate (Corning, N.Y., USA) in phenol-red free DMEM containing 5% FBS and 25 mM HEPES (Life Technologies). Cells were allowed to settle for 24 h and then were incubated with 30 μM Enduren (Promega, Madison, Wis., USA) for 2 h at 37° C. and 5% CO2 to ensure that the substrate had reached equilibrium. Following incubation BRET baseline measurements were taken for 15 min then ligands were added to plate and BRET measurements were taken for a further 1 h at 37° C. using a POLARstar optima microplate reader (BMG Labtech, Ortenberg, Germany). Filtered light emissions were sequentially measured for 1 s in each of the following windows 460-490 nm and 520-550 nm, both before and following ligand addition. The ligand-induced BRET ratio was calculated by subtracting the ratio of 520-550 nm emission over the 460-490 nm emission for a vehicle-treated sample from a ligand-treated sample of the same aliquot of cells in triplicate. […]

T4 sequence (Q9P296 whole entry, one chain of several): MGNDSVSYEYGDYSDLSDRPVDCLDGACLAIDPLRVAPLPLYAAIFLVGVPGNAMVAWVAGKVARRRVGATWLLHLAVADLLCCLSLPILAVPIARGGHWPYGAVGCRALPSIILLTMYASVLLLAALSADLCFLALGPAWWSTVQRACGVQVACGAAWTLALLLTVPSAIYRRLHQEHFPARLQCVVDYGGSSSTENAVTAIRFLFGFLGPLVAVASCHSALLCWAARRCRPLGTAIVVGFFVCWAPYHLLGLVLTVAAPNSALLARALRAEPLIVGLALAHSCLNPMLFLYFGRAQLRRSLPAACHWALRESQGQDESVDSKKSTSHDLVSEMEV

Substance | activity (agonist or antagonist) at C5a1 [1] | inhibition of 125I-C5a binding to C5aR1 membranes, full concentration response [2] | activity (agonist or antagonist) at C3aR [3] | IL-6 release from LPS stimulated HMDM [4] | IL-10 release from LPS stimulated HMDM [4] | TNFα release from LPS stimulated HMDM [4] | IL-6 release from LPS stimulated HMDM in the presence of PMX53 [4] | up-regulation of heteromer formation between C5a1-C5a2 [5]
Ac-LIRLWR-OH [Peptide P59, Ac-LIRLWR-OH] | no activity | dose-dependently inhibited | no activity | only showed significant inhibition of IL-6 at 100 μM | no effect | no effect | unaffected | neither P32 or P59 were able to up-regulate heteromer formation
Ac-RHYPYWR-OH [Peptide P32, Ac-RHYPYWR-OH] | no activity | dose-dependently inhibited | no activity | significant inhibition of IL-6 release at two (10 and 100 μM) of the four doses tested | no effect | no effect | unaffected | neither P32 or P59 were able to up-regulate heteromer formation

Reference: patent US10280197B2, “Discovery of the first selective C5A receptor 2 (C5L2/C5AR2) ligands” (The Regents of the University of California, priority 2015, dated 2019)
